Assay [1] concerns the target Mu-type opioid receptor (Bos taurus, UniProt P79350).
Assay [2] has as its target Mu-type opioid receptor (Mus musculus, UniProt P42866).

Several values for one entry are separate records, joined by “and”; a condition that tells them apart may be missing. Equal entries are not always repeated. Where a SMILES comes first, the peptide text is derived from it.

Chain of Mu-type opioid receptor (Bos taurus, UniProt P79350) (P79350 whole entry): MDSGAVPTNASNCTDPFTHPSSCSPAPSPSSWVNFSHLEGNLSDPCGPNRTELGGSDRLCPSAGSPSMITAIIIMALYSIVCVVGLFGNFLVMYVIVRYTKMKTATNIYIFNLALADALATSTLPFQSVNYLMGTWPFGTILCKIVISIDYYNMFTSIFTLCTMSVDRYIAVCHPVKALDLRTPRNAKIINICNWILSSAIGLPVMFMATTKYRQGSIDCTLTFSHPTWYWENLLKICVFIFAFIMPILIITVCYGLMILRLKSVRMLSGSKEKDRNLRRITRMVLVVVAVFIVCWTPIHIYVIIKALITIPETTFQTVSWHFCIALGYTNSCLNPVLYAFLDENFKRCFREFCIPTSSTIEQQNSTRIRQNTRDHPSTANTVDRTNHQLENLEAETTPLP
Chain of Mu-type opioid receptor (Mus musculus, UniProt P42866) (P42866 whole entry): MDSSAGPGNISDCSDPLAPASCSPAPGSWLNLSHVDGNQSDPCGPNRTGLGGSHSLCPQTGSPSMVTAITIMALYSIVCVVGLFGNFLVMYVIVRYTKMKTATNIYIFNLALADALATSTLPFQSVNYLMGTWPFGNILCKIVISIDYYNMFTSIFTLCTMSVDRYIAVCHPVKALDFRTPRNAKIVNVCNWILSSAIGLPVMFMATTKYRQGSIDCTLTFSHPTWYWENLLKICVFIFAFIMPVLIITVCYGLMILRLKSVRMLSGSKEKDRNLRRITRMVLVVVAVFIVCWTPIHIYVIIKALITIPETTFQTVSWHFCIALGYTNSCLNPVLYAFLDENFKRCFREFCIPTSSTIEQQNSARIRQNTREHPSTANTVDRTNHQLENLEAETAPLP

As to `NC(=O)[C@H](Cc1ccccc1)NC(=O)[C@H](Cc1c[nH]c2ccccc12)NC(=O)[C@@H]1CCCN1C(=O)[C@@H](N)Cc1ccc(O)cc1` [Endomorphin 1], the inhibitory constant (Ki) (in general, the equilibrium dissociation constant of an inhibitor or competing ligand from its target) in assay [1] was 0.67 nM and 3.2 nM. With `CC(C)C[C@H](NC(=O)[C@H](Cc1ccccc1)NC(=O)CNC(=O)[C@@H](CO)NC(=O)[C@@H](N)Cc1ccc(O)cc1)C(=O)N[C@H](C(=O)O)[C@@H](C)O` [DSLET-OH], in assay [2], the inhibition constant (Ki) is 20 nM and 10.8 nM. The same measure, in the same setting: as for `COc1ccc2c3c1O[C@H]1C(=O)CC[C@@]4(O)[C@@H](C2)N(CC2CC2)CC[C@]314`, the figure is 20.3 nM and 21.2 nM. In the case of `NC(=O)[C@H](Cc1ccccc1)NC(=O)[C@H](Cc1ccccc1)NC(=O)[C@@H]1CCCN1C(=O)[C@@H](N)Cc1ccc(O)cc1`, the Ki in assay [1] is 0.43 nM and 4 nM.

Consider `CC[C@H](C)[C@H](NC(=O)[C@H](C)NC(=O)[C@H](CC(N)=O)NC(=O)[C@H](CCCCN)NC(=O)[C@H](Cc1ccccc1)NC(=O)[C@H](CC(C)C)NC(=O)[C@@H](NC(=O)[C@@H](NC(=O)[C@H](CC(C)C)NC(=O)[C@@H]1CCCN1C(=O)[C@@H](NC(=O)[C@H](CCC(N)=O)NC(=O)[C@H](CO)NC(=O)[C@H](CCCCN)NC(=O)[C@H](CCC(=O)O)NC(=O)[C@H](CO)NC(=O)[C@@H](NC(=O)[C@H](CCSC)NC(=O)[C@H](Cc1ccccc1)NC(=O)CNC(=O)CNC(=O)[C@@H](N)Cc1ccc(O)cc1)[C@@H](C)O)[C@@H](C)O)C(C)C)[C@@H](C)O)C(=O)N[C@H](C(=O)N[C@@H](CCCCN)C(=O)N[C@@H](CC(N)=O)C(=O)N[C@@H](C)C(=O)N[C@@H](Cc1cnc[nH]1)C(=O)N[C@@H](CCCCN)C(=O)N[C@@H](CCCCN)C(=O)NCC(=O)N[C@@H](CCC(N)=O)C(=O)O)C(C)C` [Beta-Endorphin] (H-YGGFMTSEKSQTPLVTLFKNAIVKNAHKKGQ-OH), for which the inhibitory constant (Ki) in assay [2] is 10.9 nM and 3.22 nM. Still for that read-out and setting: under `CN1CCC23c4c5ccc(O)c4O[C@H]2[C@@H](OC2OC(C(=O)O)C(O)C(O)C2O)C=C[C@H]3[C@H]1C5` (some centres not stated) [Morphine 6-glucuronide] stands 2.35 nM and 2.47 nM. Same read-out and setting: under `C=CCN1CC[C@]23CCCCC2[C@H]1Cc1ccc(O)cc13` (some centres not stated) [Levallorphan] stands 0.97 nM and 0.96 nM; under `CC[C@H](C)[C@H](NC(=O)[C@H](CCCNC(=N)N)NC(=O)[C@H](CCCNC(=N)N)NC(=O)[C@H](CC(C)C)NC(=O)[C@H](Cc1ccccc1)NC(=O)CNC(=O)CNC(=O)[C@@H](N)Cc1ccc(O)cc1)C(=O)N[C@@H](CCCNC(=N)N)C(=O)N1CCC[C@H]1C(=O)N[C@@H](CCCCN)C(=O)N[C@@H](CC(C)C)C(=O)N[C@@H](CCCCN)C(=O)N[C@@H](Cc1c[nH]c2ccccc12)C(=O)N[C@@H](CC(=O)O)C(=O)N[C@@H](CC(N)=O)C(=O)N[C@@H](CCC(N)=O)C(=O)O` [Dynorphin A (1-17)], 12.8 nM and 3.32 nM; under `CSCC[C@H](NC(=O)[C@H](Cc1ccccc1)NC(=O)CNC(=O)CNC(=O)[C@@H](N)Cc1ccc(O)cc1)C(=O)N[C@@H](CCCNC(=N)N)C(=O)N[C@@H](Cc1ccccc1)C(=O)O` [enkephalin-Met, Arg(6)-Phe(7)] (H-YGGFMRF-OH), 30 nM and 13.4 nM.

For the compound `CC(C)C[C@H](NC(=O)[C@H](Cc1ccccc1)NC(=O)CNC(=O)CNC(=O)[C@@H](N)Cc1ccc(O)cc1)C(=O)N[C@@H](CCCN=C(N)N)C(=O)N[C@@H](CCCN=C(N)N)C(=O)N[C@@H](CCC(N)=O)C(=O)N[C@@H](Cc1ccccc1)C(=O)N[C@@H](CCCCN)C(=O)N[C@H](C(=O)N[C@H](C(=O)N[C@H](C(=O)O)[C@@H](C)O)C(C)C)C(C)C` [(Dynorphin)2-[2-(2-{2-[2-(2-{2-[2-Amino-3-(4-hydroxy-phenyl)-propionylamino]-acetylamino}-acetylamino)-3-phenyl-propionylamino]-4-methyl-pentanoylamino}-5-guanidino-pentanoylamino)-5-guanidino-pentanoylamino]-3-methyl-pentanoic acid], in assay [2], the inhibition constant (Ki) is 39.8 nM and 11.4 nM. For `C=CCN1CCC23c4c5ccc(O)c4O[C@@H]2C(=NNC(=O)c2ccccc2)CCC3(O)C1C5` (some centres not stated), in assay [2], the Ki is 0.2 nM and 0.12 nM.

As for `NC(=O)CNC(=O)[C@H](Cc1c[nH]c2ccccc12)NC(=O)[C@@H]1CCCN1C(=O)[C@@H](N)Cc1ccc(O)cc1` [CAS_132632] (H-YPWG-NH2), the Ki in assay [2] is 18 nM and 44.7 nM.
